This is an account of results in ChEMBL document CHEMBL5244223, “l,8-Naphthalimide based DNA intercalators and anticancer agents. A systematic review from 2007 to 2017” (Eur J Med Chem, 2018).

In brackets after ≈: the same amount, converted by molar mass.

Test [1] relates to Sarcoma-180. In words: Inhibition of DNA synthesis in mouse Sarcoma-180 cells at 8 uM incubated for 30 mins by [3H]-thymidine incorporation based scintillation counter analysis. In kind it is functional. The settings on record: Sarcoma-180, 0.5 h. A general note: Uptake of a labelled nucleoside into DNA is a usual measure of proliferation.
Test [2] concerns Sarcoma-180. In words: Inhibition of RNA synthesis in mouse Sarcoma-180 cells at 8 uM incubated for 60 mins by [3H]-uridine incorporation based scintillation counter analysis. The format is functional. As to conditions: Sarcoma-180, 1 h.
The subject of test [3] is Sarcoma-180. In words: Antitumor activity against mouse Sarcoma-180 cells xenografted in Swiss mouse assessed as T/C ratio at 25 mg/kg, po daily measured upto 7 days. The settings on record: time <= 7 day. In kind it is functional.
Test [4] concerns Ehrlich. In words: Antitumor activity against mouse EAC cell xenografted in Swiss mouse assessed as T/C ratio at 25 mg/kg, po daily measured upto 7 days. The format is functional. The settings on record: time <= 7 day.
For a further test, the system named is Proteus vulgaris. In words: Antibacterial activity against Proteus vulgaris assessed as inhibition of bacterial growth by two-fold serial dilution assay. In kind it is functional.
A further test has as its system Shigella dysenteriae. Put plainly: Antibacterial activity against Shigella dysenteriae assessed as inhibition of bacterial growth by two-fold serial dilution assay. In kind it is functional.
Test [5] concerns MCF7. Put plainly: Cytotoxicity against human MCF7 cells assessed as cell growth inhibition by CCK-8 assay. The format is functional, cell-based. In general terms: Tetrazolium dyes change colour on reduction, which living cells bring about.
The test system of test [6] is HeLa. Put plainly: Antiproliferative activity against human HeLa cells assessed as inhibition of cell proliferation by MTT assay. In kind it is functional, cell-based.
Test [7] concerns P388. Put plainly: Antiproliferative activity against mouse P388 cells assessed as inhibition of cell proliferation by MTT assay. In kind it is functional, cell-based.
Test [8] relates to A-375. In words: Antiproliferative activity against human A-375 cells assessed as inhibition of cell proliferation by MTT assay. The format is functional, cell-based.
Test [9] has as its system HeLa. In words: Cytotoxicity against human HeLa cells assessed as cell growth inhibition by MTT assay. The format is functional, cell-based.
Another test deals with A549. Put plainly: Cytotoxicity against human A549 cells assessed as cell growth inhibition by MTT assay. The format is functional, cell-based.
The subject of the next test is HL-60. Put plainly: Cytotoxicity against human HL-60 cells assessed as cell growth inhibition by MTT assay. The format is functional, cell-based.
For test [10], the system named is MCF7. Put plainly: Cytotoxicity against human MCF7 cells assessed as cell growth inhibition by MTT assay. The format is functional, cell-based.
For another test, the system named is HCT-8. In words: Cytotoxicity against human HCT-8 cells assessed as cell growth inhibition by MTT assay. The format is functional, cell-based.
Test [11] relates to A-375. In words: Cytotoxicity against human A-375 cells assessed as cell growth inhibition by MTT assay. The format is functional, cell-based.
In test [12] the test system is P388. Put plainly: Cytotoxicity against mouse P388 cells assessed as cell growth inhibition by MTT assay. The format is functional, cell-based.
Test [13] in a line: Selectivity ratio of IC50 for cytotoxicity against human HeLa cells under hypoxic condition to IC50 for cytotoxicity against human HeLa cells under aerobic condition. In kind it is functional.
For test [14], the system named is Sarcoma-180. Put plainly: Antitumor activity against mouse Sarcoma-180 cells xenografted in Swiss mouse assessed as T/C ratio at 40 mg/kg, po daily measured upto 7 days. The format is functional. The settings on record: time <= 7 day.
Test [15] deals with Ehrlich. In words: Antitumor activity against mouse EAC cell xenografted in Swiss mouse assessed as T/C ratio at 40 mg/kg, po daily measured upto 7 days. In kind it is functional. As to conditions: time <= 7 day.
The test system of test [16] is Sarcoma-180. In words: Antitumor activity against mouse Sarcoma-180 cells xenografted in Swiss mouse assessed as T/C ratio at 0.5 mg/kg, po daily measured upto 7 days. The settings on record: time <= 7 day. In kind it is functional.

By inhibition is commonly meant the change of the read-out against control, counted positive when it falls. The T/C is the result in the treated group divided by that in the control group, in per cent. As to `O=NN(CCCl)C(=O)NC1CCCCC1` [LOMUSTINE], the inhibition at 8 µM with Sarcoma-180 [1] was 64%; in the test on Sarcoma-180 [2], 90%. The values for the T/C in the test on Sarcoma-180 [3] and with Ehrlich [4] were >279% and >240%, respectively.

Usually MIC stands for the lowest concentration that inhibits growth of the organism. Broadly, the IC50 is the concentration needed to halve the response being measured. As for `CCNc1ccc2c3c(cccc13)C(=O)N(CC(O)Cn1c([N+](=O)[O-])cnc1C)C2=O` (stereo not given), the values for the MIC in the test with Proteus vulgaris and in the test with Shigella dysenteriae were 2 µM (≈ 0.847 µg/mL) and 10 µM (≈ 4.23 µg/mL), respectively. Also, the IC50 in the test on MCF7 [5] amounted to 8.51 µM.

Consider `CN(C)CCNc1ccc2c3c(cccc13)C(=O)N(c1ccc(S(=O)(=O)NC(=O)c3ccc(N4CCN(CC=C(c5ccccc5)c5ccccc5)CC4)cc3)cc1)C2=O`, for which the IC50 with HeLa [6], with P388 [7] and in the test on A-375 [8] was 6.7 µM throughout.

Consider `COc1ccc2c(CC(=O)OCCN3C(=O)c4cccc5c(N(C)C)ccc(c45)C3=O)c(C)n(C(=O)c3ccc(Cl)cc3)c2c1`, for which the half-maximal inhibitory concentration (IC50) in the test with HeLa [9], in the test on A549, with HL-60, in the test with MCF7 [10], in the test on HCT-8 and with A-375 [11] was 13.9 µM throughout. In addition, the IC50 with P388 [12] was 13.9 µM. Further, the “Ratio IC50” value in test [13] was determined as 1.3.

Turning to `CCN(N=O)C(=O)NCCN1C(=O)c2cccc3cccc(c23)C1=O`, the T/C was 140% with Sarcoma-180 [14] and 134% in the test with Ehrlich [15]. Also, the figures for the inhibition at 8 µM with Sarcoma-180 [1] and in the test with Sarcoma-180 [2] were 65% and 60%, respectively.

For `CN(C)CCN1C(=O)c2cccc3cc([N+](=O)[O-])cc(c23)C1=O` [MITONAFIDE], the inhibition at 8 µM with Sarcoma-180 [1] amounted to 99%; with Sarcoma-180 [2] it was 94%. In addition, in the test on Sarcoma-180 [16], the T/C was determined as 187%.
